Assay: In vivo reduction in blood pressure relative to maximum achieved with the K-ATP standard P1075 in spontaneously hypertensive rat
Compound O=C1CCCC2=C1[C@@H](c1ccc(F)c(Br)c1)C1=C(O)OCC1=N2 has an ED50 of 2450 nM. In the case of O=C1CCCC2=C1[C@H](c1ccc(F)c(Br)c1)C1=C(CCS1(=O)=O)N2, the ED50 is reported as 427 nM. For O=C1OCC2=C1C(c1ccc(F)c(Br)c1)C1=C(O)OCC1=N2 (stereo not drawn), the ED50 was 398 nM.
